Laboratory results: article PMC9157788, “Design, Synthesis, and Apoptosis-Promoting Effect Evaluation of Rhopaladins’ Analog 4-Arylidene-5-Oxopyrrolidine Derivatives” (Frontiers in Chemistry, 2022)

Tests used:
[1] = tested on: SiHa cells; experiment: MTT cell viability assay, SiHa; format: cell-based; conditions: Homo sapiens, 48 h, read-out: Half inhibitory concentration (IC50), SiHa
Experimental: (§1) HepG2 (human epidermoid hepatocellular carcinoma cell), 7402 (human epidermoid hepatocellular carcinoma cell), C-33A (human epidermoid cervical carcinoma cell), and HeLa (human epidermoid cervical adenocarcinoma cell) were incubated in Dulbecco’s modified Eagle’s medium (DMEM), which was purchased from Gibco (Grand Island, NY, United States). SiHa cells (human epidermoid cervical squamous cell carcinoma) were incubated in minimum essential medium (MEM, also from Gibco). CaSki (human epidermoid cervical carcinoma cell) and LO2 (human normal liver cell) were incubated in minimum essential medium (MEM, also from Gibco). All cells were maintained at 37°C in a humidified incubator with 5% carbon dioxide, and the media contained 10% fetal bovine serum (FBS, Corning, United States) and 1% penicillin–streptomycin antibiotic solution (Corning, United States). SiHa and CaSki were bought from the China Center for Type Culture Collection (CCTCC). The other five types of cancer cell lines were obtained from the Experiment Center of Medicine, Sinopharm Dongfeng Hospital, Hubei University of Medicine. The compounds were dissolved in dimethyl sulfoxide (DMSO, MP Biomedicals, United States), and cisplatin was purchased from Aladdin, Shanghai, China. The control (0 μM) group was treated with DMSO only in the same conditions, and the DMSO content in the medium was less than 0.1%.
(§2) Cell viability was measured by a 3-(4,5-dimethylthiazol-2-yl)-2,5-diphenyltetrazolium bromide (MTT, MultiSciences, China) assay. The specific experimental steps referred to our previous research ([Zhu et al., 2020]). For each cell line, cells were digested and seeded in 96-well plates at a density of 1 × 10^3 cells/well. […] Then, the formed formazan crystals were dissolved in DMSO, and the plates were estimated in a […] microplate reader (BioTek Inc., Bio-Tek MQX200) at a wavelength of 490 nm. Optical density (OD) values were obtained, and the inhibition rate and IC50 of each compound on different cells were calculated by GraphPad Prism 8.0.1 software. […]

[2] = tested on: CaSki cells; experiment: MTT cell viability assay, CaSki; format: cell-based; conditions: Homo sapiens, Ca-Ski, 48 h, read-out: Half inhibitory concentration (IC50), CaSki
Experimental: as §1, §2

[3] = tested on: HepG2 cells; experiment: MTT cell viability assay, HepG2; format: cell-based; conditions: Homo sapiens, 48 h, read-out: Half inhibitory concentration (IC50), HepG2
Experimental: as §1, §2

[4] = tested on: Bcl-2; experiment: Western blot, Bcl-2 expression in 7402 cells; format: cell-based, human; conditions: 7402, 25 μM, 48 h, vs DMSO control, p < 0.01
Experimental: (§3) The experimental steps of the Western blotting assay referred to Lin’s study ([Lin et al., 2020]). After treatment with different concentrations of RPDPRH (0, 6.25, 12.5, and 25 μM) for 48 h, hepatocarcinoma cells were lysed with an ice-cold RIPA protein lysis buffer (Beyotime, China). Total cell lysates were prepared with RIPA lysis buffer containing phosphatase inhibitors (Roche, China) and protease inhibitors (MedChemExpress, United States). Total cell lysates were centrifuged at 10,000 g for 10 min at 4°C to obtain the supernatant. The protein concentration was detected according to the BCA Protein Assay Kit (Beyotime, China). Then, 5× SDS loading buffer (Beyotime, China) was added to the supernatant and boiled at 100°C for 10 min. The obtained protein samples were stored at −80°C.
(§4) The protein samples (20 μg) were resolved on 4% concentration glue and 12% separating glue and prepared according to the SDS-PAGE Gel Quick Preparation Kit procedure (Beyotime, China). After electrophoresis at 80 V for 1.5–2 h, the proteins were wet-transferred onto a polyvinylidene difluoride membrane (PVDF, Millipore) at 300 mA for 1–1.5 h. […]

[5] = tested on: Bax; experiment: Western blot, Bax expression in HepG2 cells; format: cell-based, human; conditions: HepG2, 25 μM, 48 h, vs DMSO control
Experimental: as §3, §4

[6] = tested on: Bcl-2; experiment: Western blot, Bcl-2 expression in HepG2 cells; format: cell-based, human; conditions: HepG2, 25 μM, 48 h, vs DMSO control, p < 0.01
Experimental: as §3, §4

[7] = tested on: LO2 cells; experiment: MTT cell viability assay, normal liver LO2; format: cell-based, human
Experimental: as §1
Cell viability was measured by a 3-(4,5-dimethylthiazol-2-yl)-2,5-diphenyltetrazolium bromide (MTT, MultiSciences, China) assay. The specific experimental steps referred to our previous research ([Zhu et al., 2020]). For each cell line, cells were digested and seeded in 96-well plates at a density of 1 × 10^3 cells/well. After 24 h of culture, the cells were adherent and treated with varying concentrations of RPDPRH (0, 3.125, 6.25, 12.5, 25, 50, and 100 μM). Cells without treatment were used as a solvent control group (0 μM, DMSO) and those with cisplatin treatment served as a positive control. After 48 h of treatment, MTT solution was added and incubated for 4 h. Then, the formed formazan crystals were dissolved in DMSO, and the plates were estimated in a […] microplate reader (BioTek Inc., Bio-Tek MQX200) at a wavelength of 490 nm. Optical density (OD) values were obtained, and the inhibition rate and IC50 of each compound on different cells were calculated by GraphPad Prism 8.0.1 software. Cell inhibition rate (%) = 1− [(OD experimental-OD blank)/(OD control-OD blank)] × 100%.

[8] = tested on: 7402 cells; experiment: Annexin V-FITC/PI flow cytometry apoptosis assay, 7402; format: cell-based, human; conditions: 48 h; for total apoptosis rate: DMSO control 8.96 ± 3.05%
Experimental: The effect of RPDPRH on apoptosis was performed using the Annexin V-FITC/PI Apoptosis kit (MultiSciences, China), following the manufacturer’s protocol. The cells were digested, dispersed, and plated into six-well plates with 2 × 10^4 cells/well and treated with RPDPRH (0, 6.25, 12.5, and 25 μM) at various concentrations for 48 h. Upon completion of the treatment, cells were harvested, washed with cool phosphate buffered solution (PBS, Gibco, United States) (0.01 M, pH=7.4), and re-suspended in a 500 μl binding buffer. Annexin V-FITC (5 μl) and PI (10 μl) were added into the cell suspension, and then, the suspension was incubated at room temperature away from light for 5 min. Cells were analyzed by using a flow cytometer (Agilent NovoCyte, China) immediately, and the results of the apoptosis were analyzed by FlowJo software.

O=C1/C(=C/c2ccc(Cl)cc2)CC(/C=C/c2ccc(Cl)cc2)(C(=O)NC2CCCCC2)N1c1ccc(F)cc1 (stereo not drawn) [RPDPRH, (2E, 4E)-4-(4-chlorobenzylidene)-2-(4-chlorostyryl)-N-cyclohexyl-1-(4-fluorophenyl)-5-oxopyrrolidine-2-carboxamide]
IC50 [1]: 17.7 µM
IC50 [2]: 6.42 µM
IC50 [3]: 12.4 µM
expression of anti-apoptotic protein Bcl-2 [4]: decrease
ratio of Bax/Bcl-2 [5]: increase obviously
expression of pro-apoptotic protein Bax ([5]; p < 0.05): significant increase
expression of anti-apoptotic protein Bcl-2 [6]: decrease
IC50 ([7]; Homo sapiens, L02, normal liver LO2 cells, 48 h, read-out: Half inhibitory concentration (IC50), LO2): > 100 µM
toxicity to the normal hepatic LO2 cells ([7]; LO2 cells, insignificant inhibition at 100 µM (Table 1 footnote b)): no significant toxicity
early apoptotic cell (LR) rate ([8]; 7402, 6.25 μM): 4.37%
late apoptotic (UR) rate ([8]; 7402, 6.25 μM): 9.34%
total apoptosis rate ([8]; 7402, 6.25 μM): 13.71 ± 1.30%
early apoptotic cell (LR) rate ([8]; 7402, 12.5 μM): 8.53%
late apoptotic (UR) rate ([8]; 7402, 12.5 μM): 15.30%
early apoptotic cell (LR) rate ([8]; 7402, 25 μM): 11.40%
late apoptotic (UR) rate ([8]; 7402, 25 μM): 24.60%
total apoptosis rate ([8]; 7402, 25 μM): 36.00 ± 2.67%
melting point: 128 to 130 °C
